In patent US20110224300A1, “USE OF POTASSIUM 2-(a- HYDROXYPENTYL) BENZOATE IN THE MANUFACTURE OF MEDICAMENTS FOR PREVENTING AND/OR TREATING SENILE [sequence]” (Institute of Mataria Medica, Chinese Academy of Me, priority 2008, published 2011):

Experiments:
[1] = tested on: SOD; test: SOD activity of brain tissues from Aβ(25-35)-induced dementia rats; assay type: in vivo, Male Wistar rats; conditions: Aβ(25-35) rats; for SOD activity in the cortex: 2 weeks, vehicle 286.8±18.3
Experimental: The biochemical assays were conducted later (in 24 h) after behavioral testing. Eight rats in each group were anesthetized with ether and sacrificed. The brains were quickly removed and cleaned with ice-cold saline. Then the parietal cortex and hippocampus were isolated. For biochemical analysis, the tissues were weighed and homogenized in ice-cold saline with the proportion of 1:9 (w/v). Homogenization (IKA, Germany) was carried out for 2 min in an ice bath. After the homogenates were centrifuged at 2,000×g for 10 min at 4° C. (Sigma, Germany), the supernatant was used for analytical procedures. The levels of choline acetyltransferase (ChAT) SOD, and MDA activities were determined with commercial colorimetric assay kits (Nanjing Jiancheng Bioengineering Institute, China). The content of protein in the supernatant was determined by Bradford method using BSA as standard.
Rats were divided into four experimental groups randomly (10 rats/each group): one sham-operated group, one vehicle control group, and two dl-PHPB-treated groups (39, and 129 mg/kg). At 1 days after operation, drugs and vehicle were administered orally to rats for 14 days (one time/each day). The spatial learning and memory abilities of rats were detected by Morris water maze in the 9-12 days after operation. The testing of Morris water was commenced at 40 min after drugs treated. The biochemical and pathology assays conducted later (in 24 h) after behavioral testing.
The methods as described previously.

[2] = tested on: GFAP; test: GFAP immunohistochemistry, activated astrocytes of 2-VO rats; assay type: in vivo, rat
Experimental: The method for tissue fixation was described above. Serial coronal sections (40 μm) of the brains were cut through the dorsal hippocampus on a freezing microtome and collected in 6-well plates containing 0.01 M PBS. The detection of GFAP and BDNF immunoreactivity was performed using a conventional avidin-biotin-immunoperoxidease technique.
For quantitative analysis, one from every five samples in a continuous series of hippocampal or cortical tissue sections was taken, and was processed immunohistochemically. Thus, three slides were taken from each rat, and were read under an objective (×1.6) microscope. The total area of positively stained neurons was counted with Image-pro Plus 5.0 software.
Cerebral damage caused by hypoperfusion may be the basis for spatial learning and memory impairment, including earliest white matter damage, accompanied by an increase of astrocytes and microglia activation. Glial fibrillary acidic protein (GFAP) immunohistochemical staining can be used to label the activated astrocytes. 2-3 photos were taken from each selected slices in the same regions. The number of the GFAP positive astrocytes was calculated as the average value of the region. Four anatomical regions were selected to observe: the cortex, hippocampus, corpus callosum and optic tract.

Question: How did the “SOD activity in the cortex” value ([1]; 39 mg/kg oral) turn out when `CCCCC(O)c1ccccc1C(=O)[O-].[K+]` (racemic) [dl-PHPB, Potassium 2-(1-Hydroxypentyl)-benzoate] was run?
Answer: The value was 238.2±32.7 U/mg protein.

Question: What about the “SOD activity in the cortex” value ([1]; 129 mg/kg oral, P<0.01) of the same compound?
Answer: Its value is 185.2±21.6 U/mg protein.

Question: And the “SOD activity in the hippocampus” value ([1]; hippocampus)?
Answer: The value was “not significantly improved”.

Question: What about the “GFAP-positive cells in the hippocampus” value ([2]; administration of 21 days, P<0.05 or P<0.01) of the same compound?
Answer: Its value is “significantly less than in the vehicle group”.

Question: And the “GFAP-positive cells in the cortex” value ([2]; administration of 21 days, in particular dl-PHPB 39 mg/kg (P<0.01))?
Answer: The value was “significantly less than in the vehicle group”.

Question: And the “GFAP-positive cells in the optic tract” value ([2]; dl-PHPB 39 mg/kg, 21 days)?
Answer: The value was “significantly less than the vehicle group”.

Question: What about the “GFAP-positive cells in the hippocampus” value ([2]; dl-PHPB 39 mg/kg, 21 days, P<0.01) of the same compound?
Answer: The value was “most significant effect”.

Question: And the “GFAP positive cells in the corpus callosum” value ([2]; dl-PHPB 39 mg/kg, P<0.05)?
Answer: The value was “significantly decreased level of GFAP positive cells”.

Question: And the “GFAP-positive cells in the optic tract” value ([2]; dl-PHPB 129 mg/kg, 21 days)?
Answer: The value was “significantly less than the vehicle group”.

Question: What about the “GFAP-positive cells in the hippocampus” value ([2]; dl-PHPB 129 mg/kg, 21 days, P<0.01) of the same compound?
Answer: Its value is “most significant effect”.
